Test systems include ACHN renal; CAKI-1 renal; CCRF-CEM leukemia; HT29 colon; IGROV1 ovarian; LOX IMVI melanoma; MALME-3M melanoma; NCI/ADR-RES ovarian; OVCAR-8 ovarian; RPMI-8226 leukemia.
Common to all, as to assay: NCI-60 cell line screen, 48 h

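Compound exposure: 48 hours, 5 concentrations, 96-well plates. TGI marks complete inhibition of growth.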 *1 amine or outer side, *2 acyl side, *3 side chain or, on linkers, in order; H or OH if unused. Where a SMILES comes first, the peptide text is derived from it. [ ]: non-standard residue; d: D form. X32 = C[C@H](N[*:1])C(=O)C(C)(C)C(=O)[*:2]; Hmpa(2S,3S) = CC[C@H](C)[C@H](O)C(=O)O; NMeY = CN[C@@H](Cc1ccc(O)cc1)C(=O)O; NMeL = CN[C@@H](CC(C)C)C(=O)O; NMeV = CN[C@H](C(=O)O)C(C)C; βAla = NCCC(=O)O Where only a bound is given, the exact number is not on record here.

This passage reports TGI results from PubChem BioAssay (NCI).

For the compound `CC[C@H](C)[C@@H]1OC(=O)CCNC(=O)[C@@H](C)NC(=O)C(C)(C)C(=O)[C@H](C)NC(=O)[C@H](Cc2ccc(OC)cc2)N(C)C(=O)[C@H](C(C)C)N(C)C(=O)CNC(=O)[C@H](CC(C)C)N(C)C(=O)CNC1=O` (cyclo(G[NMeL]G[NMeV][NMeY](Me)[X32][dA][βAla][Hmpa(2S,3S)])), the TGI is above 38 µM in the assay with ACHN renal; 6.49 µM in the assay on CAKI-1 renal; 2.2 µM in the assay with CCRF-CEM leukemia; 10.2 µM with HT29 colon; 4.16 µM in the assay on IGROV1 ovarian; 10.7 µM in the assay on LOX IMVI melanoma. Also, the TGI was 10.3 µM with MALME-3M melanoma, above 50 µM with NCI/ADR-RES ovarian, 23.7 µM in the assay with OVCAR-8 ovarian and 11.1 µM in the assay with RPMI-8226 leukemia.
As to `O=C(Nc1nc(C23CC4CC(CC(C4)C2)C3)cs1)c1cc2ccccc2oc1=O`, the TGI in the assay on ACHN renal, with CAKI-1 renal, with CCRF-CEM leukemia, in the assay on HT29 colon, in the assay on IGROV1 ovarian and in the assay on LOX IMVI melanoma was above 100 µM each time. The TGI in the assay with MALME-3M melanoma, in the assay with NCI/ADR-RES ovarian, with OVCAR-8 ovarian and in the assay on RPMI-8226 leukemia was above 100 µM in each case.
On to `CCCCn1c2c(n(CCCC)c1=S)-c1c(n(CCCC)c(=S)n1CCCC)SSc1c(n(CCCC)c(=S)n1CCCC)-c1c(n(CCCC)c(=S)n1CCCC)SSc1c(n(CCCC)c(=S)n1CCCC)-c1c(n(CCCC)c(=S)n1CCCC)SS2`, for which the TGI in the assay on ACHN renal was 11.1 µM; in the assay on CAKI-1 renal it was above 40.2 µM; with CCRF-CEM leukemia it was above 14.7 µM; with HT29 colon it was above 46.6 µM; in the assay with IGROV1 ovarian, 8.64 µM; in the assay on LOX IMVI melanoma, 13.3 µM. In addition, the TGI was 6.19 µM in the assay on MALME-3M melanoma, above 50 µM with NCI/ADR-RES ovarian, above 13.6 µM in the assay on OVCAR-8 ovarian and above 50 µM with RPMI-8226 leukemia.
With `COc1ccccc1C(=O)c1c(NCc2ccccc2)c(=O)c1=O`, the TGI in the assay with ACHN renal was above 100 µM; in the assay on CAKI-1 renal, above 100 µM; with CCRF-CEM leukemia, above 100 µM; in the assay on HT29 colon, above 100 µM; in the assay with IGROV1 ovarian, 95 µM; in the assay with LOX IMVI melanoma, above 100 µM. Moreover, the TGI is 75.9 µM in the assay with MALME-3M melanoma, above 100 µM in the assay with NCI/ADR-RES ovarian, above 100 µM in the assay with OVCAR-8 ovarian and above 100 µM in the assay with RPMI-8226 leukemia.
For `N#Cc1c(N)nc(Sc2ccccc2N)c(C#N)c1-c1ccc(Cl)cc1`, the TGI with ACHN renal is 39.5 µM; in the assay on CAKI-1 renal, 45 µM; in the assay on CCRF-CEM leukemia, above 100 µM; in the assay with HT29 colon it was above 100 µM; in the assay on IGROV1 ovarian, 33.6 µM; in the assay on LOX IMVI melanoma it was 15.3 µM. Moreover, the TGI came to 27.7 µM in the assay with MALME-3M melanoma, 35.5 µM in the assay with NCI/ADR-RES ovarian, 41 µM in the assay on OVCAR-8 ovarian and 28.8 µM with RPMI-8226 leukemia.
On to `CCC(=O)Nc1ccc(N2C(=O)C(Cl)C2c2ccc(SC)cc2)cc1` (stereo not given), for which the TGI with ACHN renal, in the assay on CAKI-1 renal, in the assay with CCRF-CEM leukemia, in the assay on HT29 colon, in the assay with IGROV1 ovarian and with LOX IMVI melanoma was above 100 µM in each case. Further, the TGI in the assay with MALME-3M melanoma, in the assay with NCI/ADR-RES ovarian, in the assay with OVCAR-8 ovarian and with RPMI-8226 leukemia was above 100 µM throughout.
With `CC1(C)OCC=CCO1`, the TGI in the assay with ACHN renal, in the assay on CAKI-1 renal, in the assay with CCRF-CEM leukemia, with HT29 colon, with IGROV1 ovarian and in the assay with LOX IMVI melanoma was above 100 µM in each case. For the same compound, the TGI in the assay with MALME-3M melanoma, in the assay on NCI/ADR-RES ovarian, in the assay with OVCAR-8 ovarian and in the assay with RPMI-8226 leukemia was above 100 µM in each case.
`COc1ccc(C(=O)/C=C/c2cc(O)c(O)c(F)c2F)c(OC)c1`: the TGI in the assay with ACHN renal is above 100 µM; in the assay with CAKI-1 renal, above 100 µM; with CCRF-CEM leukemia, 32.9 µM; in the assay with HT29 colon, above 100 µM; in the assay with IGROV1 ovarian it was above 100 µM; with LOX IMVI melanoma, above 100 µM. The TGI in the assay on MALME-3M melanoma was 31.3 µM; in the assay with NCI/ADR-RES ovarian it was 67.7 µM; in the assay on OVCAR-8 ovarian it was above 100 µM; in the assay on RPMI-8226 leukemia it was 40.8 µM.
